Laboratory results published in patent EP0188781A1, “1-Oxa-1-dethia-cephalosporin compounds and antibacterial agent comprising the same” (Merck & Co., Inc., priority 1984, dated 1986).

How the values were obtained:
[1] = system: Streptococcus faecalis W-74; assay: Minimum inhibitory concentration (MIC) in vitro, antibacterial spectrum; assay type: cell-based
[2] = system: Streptococcus faecalis W-73; assay: as above; assay type: cell-based
Pseudomonas aeruginosa = assay: Antibacterial activity in vitro, summary in words; assay type: cell-based; settings: statement in words on Table 1
Text: Besides, the compounds of Examples 1, 2, 4, 5 and 7 advantageously are also effective against Pseudomonas aeruginosa.

[3] = system: Escherichia coli NIHJ JC-2; assay: Minimum inhibitory concentration (MIC) in vitro, antibacterial spectrum; assay type: cell-based
Proteus vulgaris GN76 = assay: as above; assay type: cell-based
Escherichia coli GN206 = assay: as above; assay type: cell-based
[4] = system: Streptococcus faecalis W-75; assay: as above; assay type: cell-based
[5] = system: Staphylococcus aureus 209 P JC-1; assay: as above; assay type: cell-based
Proteus rettgeri GN624 = assay: as above; assay type: cell-based
[6] = Concentration in serum after subcutaneous administration to mice, bioassay with Escherichia coli; assay type: in vivo; settings: mouse, sc, 25 mg/kg subcutaneously
Text: For the serum which was separated from the blood samples, the concentration in the serum of the compound administered was bioassayed using Escherichia coli as assay microorganism.

[7] = system: Staphylococcus aureus Smith; assay: Minimum inhibitory concentration (MIC) in vitro, antibacterial spectrum; assay type: cell-based
[8] = system: Salmonella typhimurium LT-2; assay: as above; assay type: cell-based
[9] = system: Pseudomonas aeruginosa MB3833; assay: as above; assay type: cell-based
[10] = system: Pseudomonas aeruginosa MB3829; assay: as above; assay type: cell-based
Proteus mirabilis GN79 = assay: as above; assay type: cell-based
[11] = system: Serratia marcescens No. 2; assay: as above; assay type: cell-based
[12] = system: Pseudomonas aeruginosa E-2; assay: as above; assay type: cell-based
[13] = system: Streptococcus faecalis ATCC8043; assay: as above; assay type: cell-based
Streptococcus faecalis = assay: Antibacterial activity in vitro, summary in words; assay type: cell-based; settings: statement in words on Table 1

Minimum inhibitory concentration (MIC) [1] | Minimum inhibitory concentration (MIC) [2] | Minimum inhibitory concentration (MIC) [3] | Minimum inhibitory concentration (MIC) (Proteus vulgaris GN76) | Minimum inhibitory concentration (MIC) (Escherichia coli GN206) | Minimum inhibitory concentration (MIC) [4] | Minimum inhibitory concentration (MIC) [5] | Minimum inhibitory concentration (MIC) (Proteus rettgeri GN624) | Minimum inhibitory concentration (MIC) [7] | Minimum inhibitory concentration (MIC) [8] | Minimum inhibitory concentration (MIC) [9] | Minimum inhibitory concentration (MIC) [10] | Minimum inhibitory concentration (MIC) (Proteus mirabilis GN79) | Minimum inhibitory concentration (MIC) [11] | Minimum inhibitory concentration (MIC) [12] | Minimum inhibitory concentration (MIC) [13] | SMILES | effective against Pseudomonas aeruginosa (Pseudomonas aeruginosa) | further results
25 | 100 | 0.10 | 0.025 | 1.56 | 12.5 | 0.78 | 0.39 | 1.56 | 0.10 | 12.5 | 12.5 | 50 | 0.20 | 25 | 0.78 | CCN1CCN(C(=O)NC(C(=O)N[C@@H]2C(=O)N3C(C(=O)O)=C(CSc4nc(=O)c(O)nn4C)CO[C@H]23)c2csc(N)n2)C(=O)C1=O (single isomer, unassigned) [Compound No. 7] | effective | concentration at 0.5 h ([6]; 1/2 hour): 32 µg/mL; concentration at 0.25 h ([6]; 1/4 hour): 34 µg/mL; concentration at 5 min ([6]; 1/12 hour): 25 µg/mL; concentration at 1 h ([6]; 1 hour): 13 µg/mL
100 | 100 | 0.10 | 0.025 | 0.78 | 1.56 | 1.56 | 0.39 | 3.13 | 0.05 | 50 | 12.5 | 0.025 | 0.10 | 100 | 3.13 | CO/N=C(\C(=O)N[C@@H]1C(=O)N2C(C(=O)O)=C(CSc3nc(=O)c(=O)[nH]n3C)CS[C@H]12)c1csc(N)n1 [Ceftriaxone, reference compound] | – | –
6.25 | 50 | 0.39 | 0.20 | 0.78 | 0.20 | 1.56 | 0.78 | 1.56 | 0.39 | 12.5 | 6.25 | 0.20 | 0.39 | 25 | 1.56 | CCO/N=C(\C(=O)N[C@@H]1C(=O)N2C(C(=O)O)=C(CSc3nc(=O)c(O)nn3C)[C@H](C)O[C@H]12)c1csc(N)n1 [Compound No. 2, (6R,7R)-7-[(z)-2-(2-aminothiazol-4-yl)-2-(ethoxyimino)acetamido]-(2S)-2-methyl-3-(2,5-dihydro-6-hydroxy-2-methyl-5-oxo-1,2,4-triazin-3-yl)thiomethyl-l-oxa-l-dethia-ceph-3-em-4-carboxylic acid] | effective | effective against Streptococcus faecalis (Streptococcus faecalis): effective
50 | 50 | 0.10 | 0.10 | 3.13 | 0.39 | 0.78 | 0.39 | 0.78 | 0.05 | 25 | 12.5 | 0.05 | 0.39 | 50 | 12.5 | CO/N=C(\C(=O)N[C@@H]1C(=O)N2C(C(=O)O)=C(CSc3nc(=O)c(O)nn3C)CO[C@H]12)c1csc(N)n1 [Compound No. 3, (6R,7R)-7-[(Z)-2-(2-aminothiazol-4-yl)-2-(methoxyimino)acetamido]-3-(2,5-dihydro-6-hydroxy-2-methyl-5-oxo-1,2,4-triazin-3-yl) thiomethyl-l-oxa-l-dethia-ceph-3-em-4-carboxylic acid] | – | –
– | 100 | 0.10 | 0.05 | 1.56 | 0.20 | 0.78 | 0.39 | 1.56 | 0.10 | 6.25 | – | 0.025 | – | 25 | 25 | CCO/N=C(\C(=O)N[C@@H]1C(=O)N2C(C(=O)O)=C(CSc3nc(=O)c(O)nn3C)CO[C@H]12)c1csc(N)n1 [Compound No. 4, (6R,7R)-7-[(Z)-2-(2-aminothiazol-4-yl)-2-(ethoxyimino)acetamido]-3-(2,5-dihydro-6-hydroxy-2-methyl-5-oxo-l,2,4-triazin-3-yl) thiomethyl-l-oxa-l-dethia-ceph-3-em-4-carboxylic acid] | effective | –
50 | 100 | 0.10 | 50 | 1.56 | 6.24 | 0.78 | 0.10 | 1.56 | 0.025 | 100 | 50 | 0.10 | 0.20 | 100 | 12.5 | C[C@@H]1O[C@@H]2[C@H](NC(=O)C(NC=O)c3csc(N)n3)C(=O)N2C(C(=O)O)=C1CSc1nc(=O)c(O)nn1C (stereo partly drawn) [Compound No. 6, (6R,7R)-7-[2-(2-aminothiazol-4-yl)-2-(form-amido)acetamido]-(2S)-2-methyl-3-(2,5-dihydro-6-hydroxy-2-methyl-5-oxo-1,2,4-triazin-3-yl) thiomethyl-l-oxa-l-dethia-ceph-3-em-4-carboxylic acid] | – | effective against Streptococcus faecalis (Streptococcus faecalis): effective
50 | 100 | 0.05 | 100 | 1.56 | 6.24 | 1.56 | 0.10 | 1.56 | 0.025 | 100 | 100 | 0.10 | 0.20 | 100 | 25 | Cn1nc(O)c(=O)nc1SCC1=C(C(=O)O)N2C(=O)[C@@H](NC(=O)C(NC=O)c3csc(N)n3)[C@H]2OC1 (stereo partly drawn) [Compound No. 8, (6R,7R)-7-[2-(2-aminothiazol-4-yl)-2-(form-amido)acetamido]-3-(2,5-dihydro-6-hydroxy-2-methyl-5-oxo-1,2,4-triazin-3-yl)thiomethyl-l-oxa-l-dethia-ceph-3-em-4-carboxylic acid] | – | –
100 | 100 | 0.10 | 0.20 | 0.39 | 100 | 3.13 | 0.05 | 3.13 | 0.05 | 6.25 | 12.5 | 0.10 | 0.10 | 6.25 | 25 | CO[C@@]1(NC(=O)C(C(=O)O)c2ccc(O)cc2)C(=O)N2C(C(=O)O)=C(CSc3nnnn3C)CO[C@@H]21 (some centres unmarked) [Latamoxef, reference compound] | – | –
